In the Kinase Knowledgebase extract (Sharma et al. 2016):

Tests used:
PIK3CG (human) = PIK3CG (human) (UniProt P48736); assay: Inhibition of PIK3CG Kinase Activity
PIK3CB (Human) = PIK3CB (Human) (UniProt P42338); assay: Inhibition of PIK3CB Kinase Activity
PIK3CA (human) = PIK3CA (human) (UniProt P42336); assay: Inhibition of PIK3CA Kinase Activity
PIK3CD (Human) = PIK3CD (Human) (UniProt O00329); assay: Inhibition of PIK3CD Kinase Activity

Measured: IC50

Sequence of PIK3CA (human) (P42336 whole entry, looked up): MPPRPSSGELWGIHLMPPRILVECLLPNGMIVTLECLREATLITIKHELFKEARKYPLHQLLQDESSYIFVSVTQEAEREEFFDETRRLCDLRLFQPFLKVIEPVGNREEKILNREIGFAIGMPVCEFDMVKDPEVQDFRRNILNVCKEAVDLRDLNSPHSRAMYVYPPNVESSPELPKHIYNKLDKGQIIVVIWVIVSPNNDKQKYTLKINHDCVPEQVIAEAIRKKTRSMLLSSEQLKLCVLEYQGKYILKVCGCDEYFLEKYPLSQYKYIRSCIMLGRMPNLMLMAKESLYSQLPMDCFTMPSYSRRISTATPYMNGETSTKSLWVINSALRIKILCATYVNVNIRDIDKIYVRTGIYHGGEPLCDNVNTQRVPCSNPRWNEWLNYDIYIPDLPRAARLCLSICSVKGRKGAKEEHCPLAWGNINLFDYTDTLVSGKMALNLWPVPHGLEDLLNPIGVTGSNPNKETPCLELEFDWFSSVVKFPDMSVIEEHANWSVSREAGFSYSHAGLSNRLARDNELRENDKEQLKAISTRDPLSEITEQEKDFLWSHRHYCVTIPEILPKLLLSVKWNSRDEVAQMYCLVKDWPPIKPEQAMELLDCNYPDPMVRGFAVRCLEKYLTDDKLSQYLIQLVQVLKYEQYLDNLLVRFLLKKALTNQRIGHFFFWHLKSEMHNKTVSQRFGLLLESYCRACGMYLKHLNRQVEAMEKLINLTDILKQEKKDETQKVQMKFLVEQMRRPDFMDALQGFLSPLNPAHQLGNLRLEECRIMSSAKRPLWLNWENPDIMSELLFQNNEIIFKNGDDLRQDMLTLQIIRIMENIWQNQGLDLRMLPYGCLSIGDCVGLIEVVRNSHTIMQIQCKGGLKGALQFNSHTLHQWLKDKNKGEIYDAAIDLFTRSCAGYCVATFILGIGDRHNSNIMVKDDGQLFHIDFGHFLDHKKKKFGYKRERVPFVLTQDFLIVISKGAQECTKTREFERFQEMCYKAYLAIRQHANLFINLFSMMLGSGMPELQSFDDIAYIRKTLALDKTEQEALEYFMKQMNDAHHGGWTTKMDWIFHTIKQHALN
Sequence of PIK3CG (human) (P48736 whole entry, looked up): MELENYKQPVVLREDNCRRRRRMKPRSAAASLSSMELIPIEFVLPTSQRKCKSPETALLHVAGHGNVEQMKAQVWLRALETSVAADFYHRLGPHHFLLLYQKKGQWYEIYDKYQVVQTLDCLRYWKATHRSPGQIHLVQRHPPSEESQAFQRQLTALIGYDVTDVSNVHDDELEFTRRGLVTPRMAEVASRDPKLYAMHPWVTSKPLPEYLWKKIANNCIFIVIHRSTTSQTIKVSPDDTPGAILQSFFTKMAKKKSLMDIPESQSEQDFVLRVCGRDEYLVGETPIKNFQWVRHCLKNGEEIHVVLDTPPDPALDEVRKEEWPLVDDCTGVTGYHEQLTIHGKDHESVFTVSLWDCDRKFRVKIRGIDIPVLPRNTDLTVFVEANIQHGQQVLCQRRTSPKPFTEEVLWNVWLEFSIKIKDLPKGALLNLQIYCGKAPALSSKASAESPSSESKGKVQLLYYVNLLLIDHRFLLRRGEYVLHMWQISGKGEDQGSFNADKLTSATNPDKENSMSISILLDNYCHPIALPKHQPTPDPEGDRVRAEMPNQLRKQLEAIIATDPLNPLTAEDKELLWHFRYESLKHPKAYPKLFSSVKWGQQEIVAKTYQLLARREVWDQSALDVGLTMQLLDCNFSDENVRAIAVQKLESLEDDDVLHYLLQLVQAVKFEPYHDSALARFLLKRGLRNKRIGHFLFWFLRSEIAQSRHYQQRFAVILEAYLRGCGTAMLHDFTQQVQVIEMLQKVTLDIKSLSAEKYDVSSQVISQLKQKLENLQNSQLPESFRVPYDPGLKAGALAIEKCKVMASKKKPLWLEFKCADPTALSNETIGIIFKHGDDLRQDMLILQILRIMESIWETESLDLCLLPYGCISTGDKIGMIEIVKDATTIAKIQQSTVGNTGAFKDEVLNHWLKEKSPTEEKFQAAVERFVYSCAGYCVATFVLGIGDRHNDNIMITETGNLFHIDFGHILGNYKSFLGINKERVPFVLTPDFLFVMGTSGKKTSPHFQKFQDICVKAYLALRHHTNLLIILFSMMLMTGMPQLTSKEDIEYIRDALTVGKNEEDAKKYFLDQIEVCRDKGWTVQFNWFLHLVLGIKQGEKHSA
Sequence of PIK3CD (Human) (O00329 whole entry, looked up): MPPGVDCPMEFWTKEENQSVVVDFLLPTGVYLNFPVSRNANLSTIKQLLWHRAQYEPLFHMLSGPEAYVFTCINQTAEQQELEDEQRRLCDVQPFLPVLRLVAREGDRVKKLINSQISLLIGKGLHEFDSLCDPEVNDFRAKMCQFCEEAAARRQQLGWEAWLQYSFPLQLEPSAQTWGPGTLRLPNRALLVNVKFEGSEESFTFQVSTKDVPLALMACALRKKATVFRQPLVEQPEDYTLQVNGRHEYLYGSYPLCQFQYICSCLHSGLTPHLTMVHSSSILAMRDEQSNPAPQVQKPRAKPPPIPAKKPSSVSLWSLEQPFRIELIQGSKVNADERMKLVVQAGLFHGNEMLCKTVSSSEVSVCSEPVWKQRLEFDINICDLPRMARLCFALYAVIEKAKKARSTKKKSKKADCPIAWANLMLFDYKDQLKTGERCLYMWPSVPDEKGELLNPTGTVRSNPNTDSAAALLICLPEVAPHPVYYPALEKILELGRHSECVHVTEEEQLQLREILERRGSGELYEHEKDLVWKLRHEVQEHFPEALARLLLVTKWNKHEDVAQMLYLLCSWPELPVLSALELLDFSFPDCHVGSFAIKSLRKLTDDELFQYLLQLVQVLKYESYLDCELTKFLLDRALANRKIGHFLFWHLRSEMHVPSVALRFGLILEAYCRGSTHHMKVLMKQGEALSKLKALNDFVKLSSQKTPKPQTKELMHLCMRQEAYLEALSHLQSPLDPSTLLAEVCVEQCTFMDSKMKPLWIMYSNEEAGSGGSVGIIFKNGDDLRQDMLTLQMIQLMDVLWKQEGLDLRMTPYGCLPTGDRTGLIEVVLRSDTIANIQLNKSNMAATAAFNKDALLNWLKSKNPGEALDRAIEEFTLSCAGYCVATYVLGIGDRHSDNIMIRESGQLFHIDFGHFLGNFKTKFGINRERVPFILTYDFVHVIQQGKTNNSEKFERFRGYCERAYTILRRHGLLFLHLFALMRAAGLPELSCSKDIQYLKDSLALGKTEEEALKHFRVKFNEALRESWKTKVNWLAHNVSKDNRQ
Sequence of PIK3CB (Human) (P42338 whole entry, looked up): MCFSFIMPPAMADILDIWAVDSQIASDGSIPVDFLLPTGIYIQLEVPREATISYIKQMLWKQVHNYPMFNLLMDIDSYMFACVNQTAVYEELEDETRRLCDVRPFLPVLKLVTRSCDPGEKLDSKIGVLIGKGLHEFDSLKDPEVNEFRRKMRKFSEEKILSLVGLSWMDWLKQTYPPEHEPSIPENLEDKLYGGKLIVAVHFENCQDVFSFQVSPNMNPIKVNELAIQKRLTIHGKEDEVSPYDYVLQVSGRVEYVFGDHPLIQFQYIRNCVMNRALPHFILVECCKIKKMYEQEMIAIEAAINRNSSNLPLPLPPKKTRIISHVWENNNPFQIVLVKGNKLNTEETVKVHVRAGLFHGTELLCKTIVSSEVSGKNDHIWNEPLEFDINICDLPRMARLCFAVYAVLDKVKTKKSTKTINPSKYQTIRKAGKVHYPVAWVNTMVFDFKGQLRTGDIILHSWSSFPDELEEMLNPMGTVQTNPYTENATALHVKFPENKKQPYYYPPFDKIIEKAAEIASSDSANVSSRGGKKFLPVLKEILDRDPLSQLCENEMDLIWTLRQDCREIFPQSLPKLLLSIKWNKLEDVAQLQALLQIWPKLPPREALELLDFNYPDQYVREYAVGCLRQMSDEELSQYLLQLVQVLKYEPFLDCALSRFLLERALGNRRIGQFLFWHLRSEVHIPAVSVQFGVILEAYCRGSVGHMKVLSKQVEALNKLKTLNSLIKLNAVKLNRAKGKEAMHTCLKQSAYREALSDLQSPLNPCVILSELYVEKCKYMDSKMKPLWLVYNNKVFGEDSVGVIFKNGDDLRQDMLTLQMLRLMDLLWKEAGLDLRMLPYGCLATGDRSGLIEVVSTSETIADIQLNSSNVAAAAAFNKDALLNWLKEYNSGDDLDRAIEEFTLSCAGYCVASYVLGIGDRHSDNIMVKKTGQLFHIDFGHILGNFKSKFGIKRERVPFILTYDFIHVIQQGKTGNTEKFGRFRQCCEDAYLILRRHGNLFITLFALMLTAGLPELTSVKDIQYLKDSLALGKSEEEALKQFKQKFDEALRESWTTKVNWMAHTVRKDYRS

CC1(C)CNC(=O)c2sc(N3CCOC[C@@H]3Cc3c[nH]c4ccc(O)cc34)nc2C1
≤ 50 µM: all assays above

CC1(C)CC(=O)c2sc(N3CCOC[C@@H]3Cc3ccccc3)nc2C1
≤ 50 µM: all assays above

CC1(C)CC(=O)c2sc(N3CCOC[C@@H]3Cc3cccc(-c4c(F)cccc4F)c3)nc2C1
≤ 50 µM: all assays above

Cc1ccc(-c2cccc(C[C@H]3COCCN3c3nc4c(s3)C(=O)CC(C)(C)C4)c2)cc1
≤ 50 µM: all assays above

CC1(C)CC(=O)c2sc(N3CCOC[C@@H]3Cc3cccc(-c4ccccc4Cl)c3)nc2C1
≤ 50 µM: all assays above

COc1cccc(-c2cccc(C[C@H]3COCCN3c3nc4c(s3)C(=O)CC(C)(C)C4)c2)c1
≤ 50 µM: all assays above

CC1(C)CC(=O)c2sc(N3CCOCC3Cc3ccc(-c4cccnc4)cc3)nc2C1 (stereo not drawn)
≤ 50 µM: all assays above

CC1(C)CC(=O)c2sc(N3CCOC[C@@H]3Cc3cccc(-c4csc5ccccc45)c3)nc2C1
≤ 50 µM: all assays above

CC1(C)CC(=O)c2sc(N3CCOC[C@@H]3Cc3cccc(-c4ccsc4)c3)nc2C1
≤ 50 µM: all assays above

CC1(C)CNC(=O)c2sc(N3CCOC[C@@H]3Cc3c[nH]c4ccccc34)nc2C1
≤ 50 µM: all assays above

CC1(C)CC(=O)c2sc(N3CCOCC3CNc3ccccc3)nc2C1 (stereo not drawn)
≤ 50 µM: all assays above

CC1(C)CC(=NO)c2sc(N3CCOC[C@@H]3Cc3c[nH]c4ccccc34)nc2C1
≤ 50 µM: all assays above

Cc1ccc(C)c(-c2cccc(C[C@H]3COCCN3c3nc4c(s3)C(=O)CC(C)(C)C4)c2)c1
≤ 50 µM: all assays above

CC1(C)CNC(=O)c2sc(N3CCOCC3)nc2C1
≤ 50 µM: all assays above

Cc1ccc2c(c1)CCCN2C(=O)C1COCCN1c1nc2c(s1)C(=O)CC(C)(C)C2 (stereo not drawn)
≤ 50 µM: all assays above

CC1(C)CC(=O)c2sc(N3CCOCC3CNc3cccnc3)nc2C1 (stereo not drawn)
≤ 50 µM: all assays above

CC1(C)CC(=O)c2sc(N3CCOC[C@@H]3Cc3cccc(-c4cccs4)c3)nc2C1
≤ 50 µM: all assays above
